Read-outs that look alike come from different tables or passages of the source.
What was measured:
HDF cells [1] = test: Scratch assay (cell migration), HDF; type: cell-based, human; details: 54 hrs, Cu 1×10^−3 mmol/L
Method: (§1) HEKa and HDF cells were seeded in 24-well plates (2×10^4 cells/well) and allowed to form a confluent monolayer. After starvation with FBS-free medium for 24 h, the cell monolayer was scratched in a straightline using 200 μL pipette tip to mimic an incisional wound. […] At desired time intervals, cells were photographed and cell migration rate was calculated using the formula shown as below: […]

HEKa cells [2] = test: Scratch assay (cell migration), HEKa; type: cell-based, human; details: Cu 1×10^−3 mmol/L
Method: as §1

[3] = ABTS free radical scavenging assay; type: biochemical; details: within 48 hrs, 37° C.
Method: The ability of PCMOF to scavenge the free radical cation, 2,2′-azino-bis(3-ethylbenzthiazoline-6-sulfonic acid) (ABTS) was assessed. […] A stock solution of 7 mM ABTS and 2.45 mM sodium persulfate in MQ water was prepared and left overnight in the dark at room temperature, after which the solution was sequentially filtered with 0.45 μm filter. […] At each time point, ABTS solution was sampled, diluted with MQ water 1:8 and the absorbance measured at 734 nm. All measurements were performed in triplicate. The antiradical activity was measured as % inhibition of free radicals by measuring the decrease in absorbance compared to PBS solutions at different time points.

HDF cells [4] = test: Apoptosis assay (Annexin V/PI flow cytometry), HDF; details: Cu 0.5 mmol/L, 24 h
Method: (§2) HEKa and HDF cells seeded in 12-well plates (4×10^4 cells/well) were incubated with PPCN, CuSO4, PCuSO4, CMOF or PCMOF (Cu: 0.5 mmol/L) for 24 h. Cells were harvested, washed twice with ice-cold PBS, stained with Alexa Fluor 488 conjugated Annexin V and PI for 15 min at room temperature in dark, and then analyzed by flow cytometry.

HEKa cells [5] = test: MTT cytotoxicity assay, HEKa; details: 48 h
Method: (§3) HEKa and HDF cells seeded in 96-well plates (5×10^3 cells/well) were incubated with a series of concentrations of PPCN, CuSO4, PCuSO4, CMOF or PCMOF for 48 h. Then, MTT solution was added to each well to a concentration of 0.5 mg/mL and incubated for an additional 4 h. After that, the medium was removed and 100 μL of dimethyl sulfoxide was added to dissolve crystals formed by living cells. Absorbance at 570 nm was measured using a microplate reader. Cell viability was expressed as a percentage of the absorbance to that of the control experiment without treatment.

HEKa cells [6] = test: Apoptosis assay (Annexin V/PI flow cytometry), HEKa; details: Cu 0.5 mmol/L, 24 h
Method: as §2

HDF cells [7] = test: MTT cytotoxicity assay, HDF; details: 48 h
Method: as §3

HEKa cells [8] = tested on: HEKa cells
Method: as §3

HDF cells [9] = tested on: HDF cells
Method: as §3

Row | Compound | wound closure rate (HDF cells [1]) | effect on wound closure versus blank (HEKa cells [2]; 8 h) | wound closure rate (HEKa cells [2]; 30 hrs) | ABTS radicals scavenged [3] | cell apoptosis (HDF cells [4]) | cytotoxicity (MTT) (HEKa cells [5]) | cell apoptosis (HEKa cells [6]) | cytotoxicity (MTT) (HDF cells [7]) | cytotoxicity (MTT) (HEKa cells [8]) | cytotoxicity (MTT) (HDF cells [9])
1 | O=S(=O)([O-])[O-].[Cu+2] [CuSO4, Copper sulfate] | 34.15% | significant increase | 56.73% | didn't present a free radical scavenging effect | 97.84% | increased with increasing concentrations | 78.79% | increased with increasing concentrations | – | –
2 | poly(polyethyleneglycol citrate-co-N-isopropylacrylamide) [PPCN] | – | – | – | – | – | – | – | – | not toxic | not toxic
